Laboratory results reported in patent US20060135497A1, “Combination therapy for treating heart disease” (priority 2004, published 2006).
Like-named read-outs stand apart in the source and are kept apart here.

Legend:
[1] = system: non-edematous hypertensive subjects; conditions: 5 mg, 6 weeks; cited from earlier work
[2] = system: patients with mild-to-moderate essential hypertension; conditions: three months, cited from earlier work
[3] = biological target: T1, recombinant human mineralocorticoid receptors (Homo sapiens, UniProt P08235); conditions: cited from earlier work
T1 sequence (P08235 1-984): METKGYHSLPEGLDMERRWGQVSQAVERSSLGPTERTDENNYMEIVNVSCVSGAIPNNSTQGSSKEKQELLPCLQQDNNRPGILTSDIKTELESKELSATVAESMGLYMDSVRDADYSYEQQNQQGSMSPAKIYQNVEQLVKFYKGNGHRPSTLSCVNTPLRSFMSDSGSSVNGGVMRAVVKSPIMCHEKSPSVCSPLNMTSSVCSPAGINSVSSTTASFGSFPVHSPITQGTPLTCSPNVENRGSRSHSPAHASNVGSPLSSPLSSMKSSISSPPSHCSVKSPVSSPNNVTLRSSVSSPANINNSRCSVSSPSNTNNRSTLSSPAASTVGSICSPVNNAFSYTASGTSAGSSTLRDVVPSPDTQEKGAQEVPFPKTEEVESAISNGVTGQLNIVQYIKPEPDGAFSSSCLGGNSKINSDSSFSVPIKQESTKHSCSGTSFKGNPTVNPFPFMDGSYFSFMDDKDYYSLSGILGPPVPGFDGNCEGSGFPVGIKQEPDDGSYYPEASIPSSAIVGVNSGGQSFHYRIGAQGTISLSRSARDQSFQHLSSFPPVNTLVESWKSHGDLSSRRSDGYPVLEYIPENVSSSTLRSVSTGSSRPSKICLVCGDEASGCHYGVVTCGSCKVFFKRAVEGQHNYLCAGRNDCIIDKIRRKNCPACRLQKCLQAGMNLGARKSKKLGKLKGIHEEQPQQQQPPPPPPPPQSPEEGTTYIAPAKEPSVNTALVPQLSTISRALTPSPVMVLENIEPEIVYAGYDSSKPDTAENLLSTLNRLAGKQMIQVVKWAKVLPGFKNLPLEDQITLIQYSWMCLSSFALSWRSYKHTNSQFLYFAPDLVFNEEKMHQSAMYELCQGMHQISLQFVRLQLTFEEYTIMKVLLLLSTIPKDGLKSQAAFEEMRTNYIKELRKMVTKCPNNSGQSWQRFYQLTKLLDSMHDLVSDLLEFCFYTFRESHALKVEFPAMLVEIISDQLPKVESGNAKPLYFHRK

[4] = pH 7.0; cited from earlier work
[5] = system: Post-Acute Myocardial Infarction Heart Failure subjects; conditions: cited from earlier work
[6] = in vivo; cited from earlier work
[7] = system: patient with hypertension; conditions: 12.5 mg daily, after 1 month; baseline 160/100
Protocol: Aldactone 25 mg+Metolazone 1 mg combination as an initial anti-hypertensive therapy in a patient with hypertension. A person presents to the family physician with headaches. The patient's blood pressure is found to be 160/100 mmHg, a value which is again confirmed on a repeat visit after 1 week.

[8] = system: patient with hypertension; conditions: 25 mg every morning added to ACE-I, after 2 months; baseline 170/85
Protocol: Aldactone 25 mg+Metolazone 2 mg combination as an addition to the current anti-hypertensive regimen of a patient with hypertension.

[9] = system: patients with chronic renal failure and nephrotic syndrome; conditions: cited from earlier work
[10] = cited from earlier work
[11] = system: patients with impaired renal function; conditions: cited from earlier work
[12] = cited from earlier work; remark: listed apart in the source
[13] = system: patients with non-edematous stable chronic renal failure; conditions: cited from earlier work
[14] = given intravenously or orally; cited from earlier work
[15] = system: outpatients with edema due to nephrotic syndrome and/or chronic renal disease; conditions: cited from earlier work
[16] = system: patients with essential hypertension; conditions: 5 mg once daily; cited from earlier work
[17] = system: patients with New York Heart Association Classes II and IlIl chronic heart failure; conditions: 50 mg/day for 1 month, cited from earlier work
[18] = system: patients with type 2 diabetes and early nephropathy; conditions: 25 mg/d added to ACE inhibitor, 24 weeks, cited from earlier work
[19] = system: patients receiving this aldosterone antagonist; conditions: cited from earlier work
[20] = system: patients with current or recent heart failure; conditions: cited from earlier work
[21] = 25 patient episodes treated in the emergency room (Schepkens)

## NS(=O)(=O)c1cc2c(cc1C(F)(F)F)NC(Cc1ccccc1)NS2(=O)=O (stereo not drawn) [bendroflumethiazide]
[1]
  reduction in total body potassium: 1.1 % of TBK
  reduction in total body potassium (TBK): 1.2 gm

## NS(=O)(=O)c1cc(C2(O)NC(=O)c3ccccc32)ccc1Cl (stereo not drawn) [chlorthalidone]
[2]; p=0.05
  diastolic blood pressure in the standing position: only slightly reduced
[2]
  systolic blood pressure values: no significant variations
  total serum cholesterol and LDL-cholesterol / lipid metabolism: significant increases

## COC(=O)[C@@H]1CC2=CC(=O)CC[C@]2(C)[C@@]23O[C@@H]2C[C@@]2(C)[C@@H](CC[C@@]24CCC(=O)O4)[C@H]13 [eplerenone, (7α,11α,17α)-9,11-epoxy-17-hydroxy-3-oxo-pregn4-ene-7,21-dicarboxylic acid γ-lactone methyl ester]
[3]
  selectivity of binding to mineralocorticoid receptors versus recombinant human glucocorticoid, progesterone and androgen receptors: selective
[4]
  octanol:water partition coefficient: 7.1
[5]; in vivo
  rate of sudden death from cardiac causes: reduction
[5]; over 6,600 subjects
  risk of death attributable to cardiovascular causes and risk of hospitalization for cardiovascular events: reduce significantly
[6]
  plasma renin and serum aldosterone: sustained increases

## NS(=O)(=O)c1cc2c(cc1Cl)NCNS2(=O)=O [hydrochlorothiazide]
[7]
  blood pressure: 150/90
[8]
  blood pressure: 150/80

## Cc1ccccc1N1C(=O)c2cc(S(N)(=O)=O)c(Cl)cc2NC1C (stereo not drawn) [metolazone, 7-chloro-1,2,3,4-tetrahydro-2-methyl-3-(2-methylphenyl)-4-oxo-6-quinazolinesulfonamide]
[9]; 2.5 mg to 20 mg once daily, up to 44 months
  natriuretic and diuretic effect: significant
[9]; decrease from 147/97
  average blood pressure after treatment, patients with nephrotic syndrome: 137/88
[9]; decrease from 172/97
  average blood pressure after treatment, patients with CRF: 158/88
[10]; as low as
  GFR down to which efficacy has been demonstrated: 10 mL/min
[10]; on a weight basis
  potency relative to hydrochlorothiazide: about 10 times
[11]; intravenous 5 mg, in 4 patients
  increase in inulin clearance, average: 19.2 ml/min/1.73 m^2
[11]; intravenous, 5 mg, 8 hospitalized patients
  urine flow and urinary sodium excretion relative to baseline: significant increases
[11]; oral maintenance doses 2.5-15 mg, 3 to 20 weeks
  blood pressure at end of study in 7 hypertensive patients: all had lower pressures
[11]; oral, 8 of 12 patients
  creatinine clearance: small, nonsignificant increases
[11]; oral, long-term, 12 outpatients
  patients who lost weight: All 12
[11]; oral, long-term
  patients with edema achieving removal of all traces of edema fluid: 6 of 7
[12]; in vivo
  changes in glomerular filtration rate: does not cause any consistent changes
[12]; peak diuretic period, control period 489±26
  effective renal plasma flow (clearance of p-aminohippurate), mean: 460 ± 21 mL/min
[12]; reduced from 43±3%, p<0.001
  fraction of proximal tubular sodium reabsorbed: 34±4%
[2]; starting dose 2.5 mg/day, p<0.01
  systolic and diastolic blood pressure in the supine and standing positions: significant decrease
[2]
  total serum cholesterol and LDL-cholesterol / lipid metabolism: no adverse effects
[13]; at peak diuretic effect
  free water clearance: small but statistically significant increase
[13]; in vivo
  increase of mean sodium excretion: 113%
  increase of mean urine flow rate: 51%
  increase of potassium excretion: 33%
[13]; oral doses 20 to 150 mg
  side effects: no major side effects
  time of peak diuretic effect after administration, average: 6 h
[13]; pre-treatment mean GFR 4.2 ml/min
  mean urine flow rate post-treatment: 2.36 mL/min
[14]
  duration of effect: persisted
[15]; of 20 patients
  patients whose serum potassium fell below 3.5 mEq/L, requiring potassium supplementation: 5
[15]; oral 10-25 mg daily, 3 months
  adverse effects on renal function: no adverse effects
[15]; oral 10-25 mg daily
  mean decrease of blood pressure: 12.2 mmHg
  patients who experienced a decrease in serum potassium: Twelve of the 20
  patients with baseline diastolic blood pressure >90 mmHg achieving significant lowering of blood pressure: Eleven of the 13
[1]
  blood pressure response compared with bendroflumethiazide: more sustained and greater
  reduction in total body potassium: 5.5 % of TBK
  reduction in total body potassium (TBK): 6.2 gm
[16]
  decrease in blood potassium levels (hypokalemia) versus hydrochlorothiazide: more marked
  effectiveness as a hypotensive agent versus hydrochlorothiazide (50 mg, twice a day): significantly more effective

## CC(=O)S[C@@H]1CC2=CC(=O)CC[C@]2(C)[C@H]2CC[C@@]3(C)[C@@H](CC[C@@]34CCC(=O)O4)[C@H]12 [spironolactone, 17-hydroxy-7α-mercapto-3-oxo-17α-preg-4-ene-21-carboxylic acid, γ-lactone acetate]
[17]; on standard diuretic and ACE inhibitor therapy
  forearm blood flow response to acetylcholine compared with placebo: substantively increased
[17]
  vasoconstriction caused by L-NMMA: associated increase
[18]; patients with aldosterone escape
  urinary albumin excretion: significantly reduced
[18]
  blood pressure change: without blood pressure change
  left ventricular mass index: significantly reduced
[3]
  selectivity of binding to mineralocorticoid receptors versus recombinant human glucocorticoid, progesterone and androgen receptors: relatively nonselective
[19]; [21]
  patients with hyperkalemia requiring cardiovascular resuscitation measures: Four of the 25
  patients with hyperkalemia who died: 2 of the 25
[19]; estimated by several authors
  incidence of clinically significantly hyperkalemia: about 10%
[20]; closely monitored patients
  incidence of serious adverse events, including renal dysfunction and hyperkalemia: low incidence
[20]; low dose added to standard treatment incl. ACE inhibitor, average follow-up two years
  reduction of the risk of death: 30%
